Reference: patent US9029370B2, “Substituted benzamide derivatives” (Hoffmann-La Roche Inc., priority 2011, dated 2015)
Where a name gives a salt, the structure may show the parent alone.

Assays:
rat TAAR1 = rat TAAR1 (Rattus norvegicus (Rat), UniProt Q923Y9); assay: Radioligand binding assay on rat TAAR1; conditions: rat TAAR1, HEK-293 membranes; second value of the pair (line below); read-out: Ki (μM) mouse/rat
Procedure, shortened: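 Membranes from HEK293 cells stably expressing rat TAAR1 were incubated 1 hr at 4 °C with ^3[H]-(S)-4-[(ethyl-phenyl-amino)-methyl]-4,5-dihydro-oxazol-2-ylamine; nonspecific binding was defined with 10 μM unlabeled ligand. Compounds were tested at 10 pM to 10 μM in duplicate. Bound radioactivity was read by filtration and scintillation counting.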

mouse TAAR1 = mouse TAAR1 (Mus musculus (Mouse), UniProt Q923Y8); assay: Radioligand binding assay on mouse TAAR1; conditions: mouse TAAR1, HEK-293 membranes; first value of the pair (before the slash); read-out: Ki (μM) mouse/rat
Procedure, shortened: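 Membranes from HEK293 cells stably expressing mouse TAAR1, in HEPES-NaOH pH 7.4 with 0.1 mM EDTA, were incubated 1 h at 4°C with tritiated (S)-4-[(ethyl-phenyl-amino)-methyl]-4,5-dihydro-oxazol-2-ylamine and compound (10 pM–10 μM, duplicates). Nonspecific binding defined with 10 μM unlabeled ligand; bound radioactivity by filtration and scintillation counting.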

mouse TAAR1, sequence (Q923Y8 whole entry): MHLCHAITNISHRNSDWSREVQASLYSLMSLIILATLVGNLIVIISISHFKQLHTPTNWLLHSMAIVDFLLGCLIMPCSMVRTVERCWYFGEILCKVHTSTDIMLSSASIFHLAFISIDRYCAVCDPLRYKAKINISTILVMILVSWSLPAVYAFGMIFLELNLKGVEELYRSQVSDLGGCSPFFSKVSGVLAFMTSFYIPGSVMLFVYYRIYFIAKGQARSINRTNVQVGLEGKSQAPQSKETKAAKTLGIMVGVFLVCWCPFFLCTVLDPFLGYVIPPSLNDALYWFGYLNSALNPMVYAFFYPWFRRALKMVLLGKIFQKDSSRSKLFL
rat TAAR1, sequence (Q923Y9 whole entry): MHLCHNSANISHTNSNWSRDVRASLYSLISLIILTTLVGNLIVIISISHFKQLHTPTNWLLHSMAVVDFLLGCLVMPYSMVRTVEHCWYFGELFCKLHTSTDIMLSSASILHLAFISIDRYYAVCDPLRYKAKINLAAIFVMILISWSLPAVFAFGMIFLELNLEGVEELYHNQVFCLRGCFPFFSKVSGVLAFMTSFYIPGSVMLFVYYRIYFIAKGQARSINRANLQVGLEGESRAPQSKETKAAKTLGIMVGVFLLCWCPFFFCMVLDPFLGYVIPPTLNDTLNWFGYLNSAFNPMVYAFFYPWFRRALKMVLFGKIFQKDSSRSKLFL

Row | SMILES | Ki (rat TAAR1) [µM] | Ki (mouse TAAR1) [µM]
1 | CCOc1cc(C(=O)Nc2ccc([C@H]3CNCCO3)c(Cl)c2)ccn1 [Example 94, (S)—N-(3-Chloro-4-(morpholin-2-yl)phenyl)-2-ethoxyisonicotinamide hydrochloride] | 0.0381 | 0.0033
2 | CCOc1ccc(C(=O)Nc2ccc([C@H]3CNCCO3)c(Cl)c2)cn1 [Example 95, (S)—N-(3-Chloro-4-(morpholin-2-yl)phenyl)-6-ethoxynicotinamide hydrochloride] | 0.035 | 0.0033
3 | O=C(Nc1ccc([C@H]2CNCCO2)c(Cl)c1)c1cnn(-c2ccc(OC(F)F)cc2)c1 [Example 96, (S)—N-(3-Chloro-4-(morpholin-2-yl)phenyl)-1-(4-(difluoromethoxy)phenyl)-1H-pyrazole-4-carboxamide hydrochloride] | 0.0006 | 0.0013
4 | N#Cc1ccc(-n2cc(C(=O)Nc3ccc([C@H]4CNCCO4)cc3Cl)cn2)cc1 [Example 103, (S)—N-(2-Chloro-4-(morpholin-2-yl)phenyl)-1-(4-cyanophenyl)-1H-pyrazole-4-carboxamide hydrochloride] | 0.0031 | 0.0052
5 | O=C(Nc1ccc([C@H]2CNCCO2)cc1F)c1cn(-c2ccc(OC(F)F)cc2)nn1 [Example 104, (S)-1-(4-(Difluoromethoxy)phenyl)-N-(2-fluoro-4-(morpholin-2-yl)phenyl)-1H-1,2,3-triazole-4-carboxamide] | 0.034 | 0.0019
6 | N#Cc1ccc(-n2cc(C(=O)Nc3ccc([C@H]4CNCCO4)c(Cl)c3)cn2)cc1 [Example 105, (S)—N-(3-Chloro-4-(morpholin-2-yl)phenyl)-1-(4-cyanophenyl)-1H-pyrazole-4-carboxamide hydrochloride] | 0.0027 | 0.0032
7 | COc1cc(C(=O)Nc2ccc([C@H]3CNCCO3)c(F)c2)cc(C#N)n1 [Example 107, (S)-2-Cyano-N-(3-fluoro-4-(morpholin-2-yl)phenyl)-6-methoxyisonicotinamide hydrochloride] | 0.0065 | 0.0093
8 | N#Cc1ccc(-n2cc(C(=O)Nc3ccc([C@H]4CNCCO4)c(F)c3)cn2)c(F)c1 [Example 108, (S)-1-(4-Cyano-2-fluorophenyl)-N-(3-fluoro-4-(morpholin-2-yl)phenyl)-1H-pyrazole-4-carboxamide hydrochloride] | 0.0059 | 0.0054
9 | N#Cc1ccc(-n2cc(C(=O)Nc3ccc([C@H]4CNCCO4)c(Cl)c3)cn2)c(F)c1 [Example 109, (S)—N-(3-Chloro-4-(morpholin-2-yl)phenyl)-1-(4-cyano-2-fluorophenyl)-1H-pyrazole-4-carboxamide hydrochloride] | 0.0038 | 0.0026
10 | N#Cc1ccc(-n2cc(C(=O)Nc3ccc([C@H]4CNCCO4)cc3F)cn2)c(F)c1 [Example 110, (S)-1-(4-Cyano-2-fluorophenyl)-N-(2-fluoro-4-(morpholin-2-yl)phenyl)-1H-pyrazole-4-carboxamide hydrochloride] | 0.0152 | 0.0088
11 | N#Cc1ccc(-n2cc(C(=O)Nc3ccc([C@H]4CNCCO4)cc3F)cn2)cc1 [Example 111, (S)-1-(4-Cyanophenyl)-N-(2-fluoro-4-(morpholin-2-yl)phenyl)-1H-pyrazole-4-carboxamide hydrochloride] | 0.0086 | 0.0074
12 | Cc1cc(C(=O)Nc2ccc([C@H]3CNCCO3)c(Cl)c2)cc(C#N)n1 [Example 112, (S)—N-(3-Chloro-4-(morpholin-2-yl)phenyl)-2-cyano-6-methylisonicotinamide hydrochloride] | 0.0248 | 0.0259
13 | Cc1cc(C(=O)Nc2ccc([C@H]3CNCCO3)cc2F)cc(C#N)n1 [Example 113, (S)-2-Cyano-N-(2-fluoro-4-(morpholin-2-yl)phenyl)-6-methylisonicotinamide hydrochloride] | 0.0654 | 0.0481
14 | Cc1cc(C(=O)Nc2ccc([C@H]3CNCCO3)c(F)c2)cc(C(N)=O)n1 [Example 114, (S)—N4-(3-Fluoro-4-(morpholin-2-yl)phenyl)-6-methylpyridine-2,4-dicarboxamide hydrochloride] | 0.265 | 0.0649
15 | Cc1cc(C(=O)Nc2ccc([C@H]3CNCCO3)c(F)c2)cc(C#N)n1 [Example 115, (S)-2-Cyano-N-(3-fluoro-4-(morpholin-2-yl)phenyl)-6-methylisonicotinamide hydrochloride] | 0.0343 | 0.029
16 | NC(=O)c1cc(C(=O)Nc2ccc([C@H]3CNCCO3)c(F)c2)cc(Cl)n1 [Example 116, (S)-6-Chloro-N4-(3-fluoro-4-(morpholin-2-yl)phenyl)pyridine-2,4-dicarboxamide hydrochloride] | 0.162 | 0.0512

Row | SMILES | Ki (rat TAAR1) [µM] | Ki (mouse TAAR1) [µM]
17 | CCc1cc(C(=O)Nc2ccc([C@H]3CNCCO3)c(F)c2)cc(C(N)=O)n1 [Example 117, (S)-6-Ethyl-N4-(3-fluoro-4-(morpholin-2-yl)phenyl)pyridine-2,4-dicarboxamide hydrochloride] | 0.045 | 0.0284
18 | Cc1cc(C(=O)Nc2ccc([C@H]3CNCCO3)c(Cl)c2)cc(C(N)=O)n1 [Example 118, (S)—N4-(3-Chloro-4-(morpholin-2-yl)phenyl)-6-methylpyridine-2,4-dicarboxamide hydrochloride] | 0.264 | 0.0416
19 | Cc1cc(C(=O)Nc2ccc([C@H]3CNCCO3)cc2F)cc(C(N)=O)n1 [Example 119, (S)—N4-(2-Fluoro-4-(morpholin-2-yl)phenyl)-6-methylpyridine-2,4-dicarboxamide hydrochloride] | 0.687 | 0.0844
20 | COc1cc(C(=O)Nc2ccc([C@H]3CNCCO3)cc2F)cc(C(N)=O)n1 [Example 120, (S)—N4-(2-Fluoro-4-(morpholin-2-yl)phenyl)-6-methoxypyridine-2,4-dicarboxamide hydrochloride] | 0.426 | 0.0851
21 | COc1cc(C(=O)Nc2ccc([C@H]3CNCCO3)cc2F)cc(C#N)n1 [Example 121, (S)-2-Cyano-N-(2-fluoro-4-(morpholin-2-yl)phenyl)-6-methoxyisonicotinamide hydrochloride] | 0.0158 | 0.0145
22 | Cc1cc(C(=O)Nc2ccc([C@H]3CNCCO3)cc2Cl)cc(C(N)=O)n1 [Example 122, (S)—N4-(2-Chloro-4-(morpholin-2-yl)phenyl)-6-methylpyridine-2,4-dicarboxamide hydrochloride] | 0.758 | 0.14
23 | Cc1cc(C(=O)Nc2ccc([C@H]3CNCCO3)cc2Cl)cc(C#N)n1 [Example 123, (S)—N-(2-Chloro-4-(morpholin-2-yl)phenyl)-2-cyano-6-methylisonicotinamide hydrochloride] | 0.0474 | 0.0413
24 | COc1cc(C(=O)Nc2ccc([C@H]3CNCCO3)cc2Cl)cc(C#N)n1 [Example 124, (S)—N-(2-Chloro-4-(morpholin-2-yl)phenyl)-2-cyano-6-methoxyisonicotinamide hydrochloride] | 0.0231 | 0.0235
25 | O=C(Nc1ccc([C@H]2CNCCO2)cc1F)c1cnn(-c2cncc(C(F)(F)F)n2)c1 [Example 125, (S)—N-(2-Fluoro-4-(morpholin-2-yl)phenyl)-1-(6-(trifluoromethyl)pyrazin-2-yl)-1H-pyrazole-4-carboxamide hydrochloride] | 0.0076 | 0.0182
26 | O=C(Nc1ccc([C@H]2CNCCO2)cc1Cl)c1cnn(-c2cncc(C(F)(F)F)n2)c1 [Example 126, (S)—N-(2-Chloro-4-(morpholin-2-yl)phenyl)-1-(6-(trifluoromethyl)pyrazin-2-yl)-1H-pyrazole-4-carboxamide hydrochloride] | 0.0047 | 0.0202
27 | O=C(Nc1ccc([C@H]2CNCCO2)c(F)c1)c1cnn(-c2cncc(C(F)(F)F)n2)c1 [Example 127, (S)—N-(3-Fluoro-4-(morpholin-2-yl)phenyl)-1-(6-(trifluoromethyl)pyrazin-2-yl)-1H-pyrazole-4-carboxamide hydrochloride] | 0.0016 | 0.007
28 | O=C(Nc1ccc([C@H]2CNCCO2)c(Cl)c1)c1cnn(-c2cncc(C(F)(F)F)n2)c1 [Example 128, (S)—N-(3-Chloro-4-(morpholin-2-yl)phenyl)-1-(6-(trifluoromethyl)pyrazin-2-yl)-1H-pyrazole-4-carboxamide hydrochloride] | 0.0025 | 0.0088
29 | O=C(Nc1ccc([C@H]2CNCCO2)c(F)c1)c1cnn(-c2cc(C(F)(F)F)ncn2)c1 [Example 129, (S)—N-(3-Fluoro-4-(morpholin-2-yl)phenyl)-1-(6-(trifluoromethyl)pyrimidin-4-yl)-1H-pyrazole-4-carboxamide hydrochloride] | 0.0025 | 0.0073
30 | O=C(Nc1ccc([C@H]2CNCCO2)c(F)c1)c1cnn(-c2ccc(C(F)(F)F)nc2)c1 [Example 130, (S)—N-(3-Fluoro-4-(morpholin-2-yl)phenyl)-1-(6-(trifluoromethyl)pyridin-3-yl)-1H-pyrazole-4-carboxamide hydrochloride] | 0.0038 | 0.0075
31 | N#Cc1cnc(-n2cc(C(=O)Nc3ccc([C@H]4CNCCO4)c(F)c3)cn2)cn1 [Example 131, (S)-1-(5-Cyanopyrazin-2-yl)-N-(3-fluoro-4-(morpholin-2-yl)phenyl)-1H-pyrazole-4-carboxamide hydrochloride] | 0.0144 | 0.0254
32 | N#Cc1cc(Cl)cc(C(=O)Nc2ccc([C@H]3CNCCO3)c(F)c2)n1 [Example 133, (S)-4-Chloro-6-cyano-N-(3-fluoro-4-(morpholin-2-yl)phenyl)picolinamide hydrochloride] | 0.018 | 0.0095
